Measured values published in PMC6282105 (Molecular Pharmaceutics, 2018).

What was measured:
[1] = target: T1, nitroreductase (NTR) (Escherichia coli, UniProt P38489); test: NTR-mediated removal of the CNBz moiety, followed by analytical HPLC; format: biochemical; conditions: 0.3 equiv NTR, NADH as cofactor, analytical HPLC (Figure S2)
T1 sequence (P38489 1-217): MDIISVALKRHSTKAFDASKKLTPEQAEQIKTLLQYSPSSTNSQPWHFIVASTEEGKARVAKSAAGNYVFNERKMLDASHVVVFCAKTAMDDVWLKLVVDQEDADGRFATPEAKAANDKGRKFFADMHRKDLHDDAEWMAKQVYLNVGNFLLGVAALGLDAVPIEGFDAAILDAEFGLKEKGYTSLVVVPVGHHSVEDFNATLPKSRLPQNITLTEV

[2] = Stability of the building block toward SPPS reagents; format: physicochemical; conditions: SPPS conditions

Structure (SMILES): O=C(NCCCC(NC(=O)OCC1c2ccccc2-c2ccccc21)C(=O)O)NC(=O)OCc1ccc([N+](=O)[O-])cc1 (centres unmarked) [compound 1, 14-(9H-fluoren-9-yl)-1-(4-nitrophenyl)-3,5,12-trioxo-2,13-dioxa-4,6,11-triazatetradecane-10-carboxylic acid]
- time to full removal of the CNBz moiety [1]: ≤ 5 min
- stability toward 20% piperidine and TFA [2]: very stable
